Source: patent US20090221697A1, “MACROLIDE CONJUGATES OF PYRROLIZINE AND INDOLIZINE COMPOUNDS AS INHIBITORS OF 5-LIPOOXYGENASE AND CYCLOOXYGENASE” (MERCKLE GMBH, priority 2005, published 2009)

How the values were obtained:
[1] = tested on: collagen-induced arthritis in DBA J1 mice; assay: Collagen-induced arthritis (bovine collagen), further experiment, p.o. once daily (Table 3); type: in vivo; conditions: vehicle = 100%
Experimental: (§1) Efficacy of drugs in suppressing arthritis may be determined using animal models. The collagen-induced arthritis in rodents is a well established experimental model of rheumatoid arthritis and considered appropriate to test the efficacy of anti-inflammatory drugs. The model is performed by immunising animals with exogenous collagen (e.g. bovine or chick) and administering substances following the appearance of disease. Disease may be boosted to increase response. The data reported herein were generated using the murine model in DBA J1 mice. At day zero a collagen suspension in complete Freund's adjuvant was injected s.c. at the tail base. At day 20, collagen in incomplete Freund's adjuvant was injected at a nearby position on the tail base. When arthritis developed, animals were randomly assigned to treatment groups. Signs monitored included weight, paw score, paw thickness and overall condition. Animals were observed and treated for 10 days. Macrolide conjugates were formulated as solutions in 1.5% citrate, 6% fructose in water.
In a further experiment Arthritis was induced using bovine collagen as described above. Animals were treated with compounds p.o. once daily following positive development of disease. Comparison with control animals (untreated) was made at 9 days after treatment.

[2] = tested on: blood cells; assay: Uptake of conjugates into blood cells (buffy coat preparations), LC/MS; type: in vitro ADME; set-up: key: −: excluded from blood cells; +: equal or similar; ++: >5-fold enhancement in blood cells; +++: >10-fold enhancement in blood cells; conditions: substrates 1 to 10 μM, 37° C., 5% CO2, screening samples at 0 and 120 minutes
Experimental: Freshly drawn heparinised blood or buffy coat preparations are used for the determination of conjugate uptake. Buffy coat preparations are preferred. They may be obtained from donor blood by simple centrifugation of whole blood (4795 g for 10 minutes). Following centrifugation, plasma is collected from the surface, after which immune cells are expressed from the donor bags along with the erythrocytes lying immediately below the leukocyte layer. This ensures high yields and a sufficient population of erythrocytes for partition. 5 ml of the resulting cell suspension are dispensed into T25 culture flasks. Substrates are added to a final concentration between 1 and 10 μM and the suspensions incubated at 37° C., in a 5% CO2 atmosphere. For analysis of uptake kinetics, samples are drawn at 0, 2, 5, 10, 30, 60, 90, 180, or 240 min after substrate addition. For screening purposes, samples are taken at 0 and 120 minutes.
Cell fractions were prepared using density gradient centrifugation. Mononuclear cells and polymorphonuclear cells are separated from erythrocytes essentially by layering the cell suspension on a viscous medium typically composed of a solution containing Ficoll or similar (commercial suppliers include: Lymphoprep, Axis Shield, 1031966; Lymphoflot HLA, 824010; or PMN Separation Medium Robbins Scientific 1068-00-0). The layered suspension is then centrifuged at 600 g, 20 min, after which the cell fractions and the plasma (incubation medium) fraction are removed by gentle aspiration, washed twice in PBS buffer, followed by estimation of the cell number and pellet volume.
Uptake of compounds is monitored using chromatographic analysis (LC/MS) with mass selective detection. Uptake is also normalized to the amount of cells based on both estimated volume and total protein. […] The supernatant is recovered and sub-sampled for protein and DNA content. Protein in the supernatant is precipitated by bringing the solution to 100% v/v ethanol and centrifuging again at 16100 g, 10 min. Compound uptake is normalized according to cytoplasmic volume of cells in order to obtain the average concentration in the cells. Cell volume is estimated by correlation of DNA, protein or haem content of lysed cell aliquots to cell number and packed volume prior to lysis.

[3] = tested on: collagen-induced arthritis in DBA J1 mice; assay: Collagen-induced arthritis, arthritic score (Table 2); type: in vivo; set-up: key: −: healthy paw; +: one joint inflamed; ++: two types of joint inflamed (e.g. tarsal and digit); +++: inflammation of three joints in two separate parts of the paw; ++++: inflammation of whole paw; conditions: treated for 10 days after arthritis developed
Experimental: as §1

[4] = dose 132 μmol/kg p.o. once daily
[5] = dose 66 μmol/kg p.o. once daily

SMILES | relative score at day 9 after onset of arthritis [1, 4] [%] | relative score at day 9 after onset of arthritis [1, 5] [%] | Ratio internal over external concentration [2] | arthitic score [3]
CC1(C)Cc2c(-c3ccccc3)c(-c3ccc(Cl)cc3)c(CC(=O)O)n2C1 [Active moiety alone, licofelone, reference compound] | 90 |  |  | 
CC[C@H]1OC(=O)[C@H](C)[C@@H](O)[C@H](C)[C@@H](O[C@@H]2O[C@H](C)C[C@H](N(C)C)[C@H]2OC(=O)Cc2c(-c3ccc(Cl)cc3)c(-c3ccccc3)c3n2CC(C)(C)C3)[C@](C)(O)C[C@@H](C)CN(C)[C@H](C)[C@@H](O)[C@]1(C)O [Compound 2] |  | 44 |  | 
CC[C@H]1OC(=O)[C@H](C)C(=O)[C@H](C)[C@@H](O[C@@H]2O[C@H](C)C[C@H](N(C)C)[C@H]2OC(=O)Cc2c(-c3ccc(Cl)cc3)c(-c3ccccc3)c3n2CC(C)(C)C3)[C@](C)(O)C[C@@H](C)CN(C)[C@H](C)[C@@H](O)[C@]1(C)O [Compound 4] | 33 | 76 |  | 
CC[C@H]1OC(=O)[C@H](C)C(=O)[C@H](C)[C@@H](O[C@@H]2O[C@H](C)C[C@H](N(C)C)[C@H]2OC(=O)Cc2c(-c3cc4ccccc4o3)c(-c3ccccc3)c3n2CC(C)(C)C3)[C@](C)(O)C[C@@H](C)CN(C)[C@H](C)[C@@H](O)[C@]1(C)O [Compound 5] |  |  | +++ (>10-fold enhancement in blood cells) | −
CC[C@H]1OC(=O)[C@H](C)C(=O)[C@H](C)[C@@H](O[C@@H]2O[C@H](C)C[C@H](N(C)C)[C@H]2OC(=O)Cc2c(-c3ccc(Cl)s3)c(-c3ccccc3)c3n2CC(C)(C)C3)[C@](C)(O)C[C@@H](C)CN(C)[C@H](C)[C@@H](O)[C@]1(C)O [Compound 8] |  |  | ++ (>5-fold enhancement in blood cells) | +
CC[C@H]1OC(=O)[C@H](C)C2O[C@](C)(C[C@@H](C)CN(C)[C@H](C)[C@@H](O)[C@]1(C)O)[C@H](O[C@@H]1O[C@H](C)C[C@H](N(C)C)[C@H]1OC(=O)Cc1c(-c3ccc(Cl)cc3)c(-c3ccccc3)c3n1CC(C)(C)C3)[C@H]2C [Compound 9] | 14 | 67 |  | 
CC1(C)Cc2c(-c3ccccc3)c(-c3cc4ccccc4o3)c(CC(=O)O)n2C1 [Drug component of 5 (without macrolide), (2-benzofuran-2-yl-6,6-dimethyl-1-phenyl-6,7-dihydro-5H-pyrrolizin-3-yl)-acetic acid, reference compound] |  |  | + | ++++
CC1(C)Cc2c(-c3ccccc3)c(-c3ccc(Cl)s3)c(CC(=O)O)n2C1 [Drug component of 8 (without macrolide), [2-(5-chloro-thiophen-2-yl)-6,6-dimethyl-1-phenyl-6,7-dihydro-5H-pyrrolizin-3-yl]-acetic acid, reference compound] |  |  | + | ++
